{"source": "patent US11053234B2", "about": "(GlaxoSmithKline Intellectual Property Development Limited, priority 2016, dated 2021)"}
{"biological_target": "T1, haematopoietic prostaglandin D synthase (H-PGDS) (Homo sapiens, UniProt O60760)", "T1 construct": "Full length human H-PGDS cDNA (Invitrogen Ultimate ORF 10H13026) was amplified by PCR; 6-His (N); TEV protease cleavage site (N); made in house; host or cells: E. coli BL21 (DE3*), vector pET22b+", "T1 sequence (O60760 whole entry)": "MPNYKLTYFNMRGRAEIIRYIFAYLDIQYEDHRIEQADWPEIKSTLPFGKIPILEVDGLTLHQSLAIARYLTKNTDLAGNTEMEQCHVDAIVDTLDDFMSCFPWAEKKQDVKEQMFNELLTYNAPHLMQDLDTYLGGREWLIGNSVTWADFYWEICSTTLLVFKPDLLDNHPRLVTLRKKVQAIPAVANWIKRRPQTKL", "assay": "H-PGDS RapidFire high throughput mass spectrometry assay (conversion of PGH2 to PGD2)", "type": "biochemical", "conditions": "10 nM H-PGDS, PGH2 formed in situ by COX-2 from arachidonic acid; read-out: Potency Range (mean pIC50) (converted)", "method_in_brief": "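PGH2 substrate generated in situ by COX-2 (full-length human, FLAG-tagged, Sf9-expressed) from arachidonic acid at ˜10 μM, then converted by full-length human His-tagged H-PGDS (E. coli-expressed). RapidFire SPE–triple quadrupole MS measured PGD2 against PGF2α as substrate surrogate to give percent conversion.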", "units": {"IC50": "nM"}}
{"smiles": "CC(C)(O)CO[C@H]1CC[C@H](NC(=O)[C@H]2C[C@H](Oc3cc(F)ccc3OC(F)F)C2)CC1", "note": "[Example 33, (trans)-3-(2-(Difluoromethoxy)-5-fluorophenoxy)-N-((trans)-4-(2-hydroxy-2-methylpropoxy)cyclohexyl)cyclobutanecarboxamide]", "IC50": "10 to 79.4"}
{"smiles": "CC(C)(O)[C@H]1CC[C@H](NC(=O)[C@H]2C[C@H](Oc3cc(F)ccc3OC(F)F)C2)CC1", "note": "[Example 34, (trans)-3-(2-(Difluoromethoxy)-5-fluorophenoxy)-N-((trans)-4-(2-hydroxypropan-2-yl)cyclohexyl)cyclobutanecarboxamide]", "IC50": "10 to 79.4"}
{"smiles": "CC(=O)c1csc(NC(=O)[C@H]2C[C@H](Oc3cc(F)ccc3OC(F)F)C2)n1", "note": "[Example 35, (trans)-N-(4-Acetylthiazol-2-yl)-3-(2-(difluoromethoxy)-5-fluorophenoxy)cyclobutanecarboxamide]", "IC50": "< 10"}
{"smiles": "NC(=O)c1ccc(N2CC(NC(=O)[C@H]3C[C@H](Oc4cccc5scnc45)C3)C2)nc1", "note": "[Example 36, 6-(3-((trans)-3-(Benzo[d]thiazol-4-yloxy)cyclobutanecarboxamido)azetidin-1-yl)nicotinamide]", "IC50": "10 to 79.4"}
{"smiles": "N#Cc1ccc(N2CC(NC(=O)[C@H]3C[C@H](Oc4cccc5scnc45)C3)C2)nc1", "note": "[Example 37, (trans)-3-(Benzo[d]thiazol-4-yloxy)-N-(1-(5-cyanopyridin-2-yl)azetidin-3-yl)cyclobutanecarboxamide]", "IC50": "10 to 79.4"}
{"smiles": "CNC(=O)c1ccc(N2CC(NC(=O)[C@H]3C[C@H](Oc4cccc5scnc45)C3)C2)nc1", "note": "[Example 38, 6-(3-((trans)-3-(Benzo[d]thiazol-4-yloxy)cyclobutanecarboxamido)azetidin-1-yl)-N-methylnicotinamide]", "IC50": "10 to 79.4"}
{"smiles": "Cc1cnc(N2CC(NC(=O)[C@H]3C[C@H](Oc4cccc5scnc45)C3)C2)nc1", "note": "[Example 39, (trans)-3-(Benzo[d]thiazol-4-yloxy)-N-(1-(5-methylpyrimidin-2-yl)azetidin-3-yl)cyclobutanecarboxamide]", "IC50": "10 to 79.4"}
{"smiles": "O=C(NC1CCN(c2ncc(F)cn2)CC1)[C@H]1C[C@H](Oc2cccc3scnc23)C1", "note": "[Example 41, (trans)-3-(Benzo[d]thiazol-4-yloxy)-N-(1-(5-fluoropyrimidin-2-yl)piperidin-4-yl)cyclobutanecarboxamide]", "IC50": "10 to 79.4"}
{"smiles": "O=C(NC1CN(c2ccc(F)cn2)C1)[C@H]1C[C@H](Oc2cccc3scnc23)C1", "note": "[Example 44, (trans)-3-(Benzo[d]thiazol-4-yloxy)-N-(1-(5-fluoropyridin-2-yl)azetidin-3-yl)cyclobutanecarboxamide]", "IC50": "10 to 79.4"}
{"smiles": "COC(=O)c1coc(N2CC(NC(=O)[C@H]3C[C@H](Oc4cccc5scnc45)C3)C2)n1", "note": "[Example 45, Methyl 2-(3-((trans)-3-(benzo[d]thiazol-4-yloxy)cyclobutanecarboxamido)azetidin-1-yl)oxazole-4-carboxylate]", "IC50": "100 to 1000"}
{"smiles": "CC(=O)c1coc(N2CC(NC(=O)[C@H]3C[C@H](Oc4cccc5scnc45)C3)C2)n1", "note": "[Example 47, (trans)-N-(1-(4-Acetyloxazol-2-yl)azetidin-3-yl)-3-(benzo[d]thiazol-4-yloxy)cyclobutanecarboxamide]", "IC50": "100 to 1000"}
{"smiles": "CCOC(=O)c1cnc(N2CC(NC(=O)[C@H]3C[C@H](Oc4cccc5scnc45)C3)C2)o1", "note": "[Example 48, Ethyl 2-(3-((trans)-3-(benzo[d]thiazol-4-yloxy)cyclobutanecarboxamido)azetidin-1-yl)oxazole-5-carboxylate]", "IC50": "100 to 1000"}
{"smiles": "CC(C)(O)c1cnc(N2CC(NC(=O)[C@H]3C[C@H](Oc4cccc5scnc45)C3)C2)o1", "note": "[Example 49, (trans)-3-(Benzo[d]thiazol-4-yloxy)-N-(1-(5-(2-hydroxypropan-2-yl)oxazol-2-yl)azetidin-3-yl)cyclobutanecarboxamide]", "IC50": "10 to 79.4"}
{"smiles": "Cc1nccc(N2CC(NC(=O)[C@H]3C[C@H](Oc4cccc5scnc45)C3)C2)n1", "note": "[Example 50, (trans)-3-(Benzo[d]thiazol-4-yloxy)-N-(1-(2-methylpyrimidin-4-yl)azetidin-3-yl)cyclobutanecarboxamide]", "IC50": "10 to 79.4"}
{"smiles": "N#Cc1ccnc(N2CC(NC(=O)N3CC(Oc4cccc5scnc45)C3)C2)c1", "note": "[Example 52, 3-(Benzo[d]thiazol-4-yloxy)-N-(1-(4-cyanopyridin-2-yl)azetidin-3-yl)azetidine-1-carboxamide]", "IC50": "10 to 79.4"}
{"smiles": "O=C(N[C@H]1CC[C@H](N[C@@H](CO)C(F)(F)F)CC1)N1CC(Oc2cccc3scnc23)C1", "note": "[Example 53, 3-(Benzo[d]thiazol-4-yloxy)-N-((trans)-4-(((S)-1,1,1-trifluoro-3-hydroxypropan-2-yl)amino)cyclohexyl)azetidine-1-carboxamide]", "IC50": "10 to 79.4"}
{"smiles": "O=C(NC1CN(c2ccccn2)C1)N1CC(Oc2cccc3scnc23)C1", "note": "[Example 54, 3-(Benzo[d]thiazol-4-yloxy)-N-(1-(pyridin-2-yl)azetidin-3-yl)azetidine-1-carboxamide]", "IC50": "10 to 79.4"}
{"smiles": "CC(C)(O)c1csc(NC(=O)[C@H]2C[C@H](Oc3cccc4scnc34)C2)n1", "note": "[Example 55, (trans)-3-(Benzo[d]thiazol-4-yloxy)-N-(4-(2-hydroxypropan-2-yl)thiazol-2-yl)cyclobutanecarboxamide]", "IC50": "10 to 79.4"}
{"smiles": "CC(C)(O)c1csc(NC(=O)N2CC(Oc3cccc4scnc34)C2)n1", "note": "[Example 56, 3-(Benzo[d]thiazol-4-yloxy)-N-(4-(2-hydroxypropan-2-yl)thiazol-2-yl)azetidine-1-carboxamide]", "IC50": "100 to 1000"}
{"smiles": "O=C(N[C@H]1CC[C@H](N2CC(F)(F)C2)CC1)N1CC(Oc2cccc3scnc23)C1", "note": "[Example 57, 3-(Benzo[d]thiazol-4-yloxy)-N-((trans)-4-(3,3-difluoroazetidin-1-yl)cyclohexyl)azetidine-1-carboxamide]", "IC50": "100 to 1000"}
{"smiles": "COCCO[C@H]1CC[C@H](NC(=O)[C@H]2C[C@H](Oc3cccc4scnc34)C2)CC1", "note": "[Example 58, (trans)-3-(Benzo[d]thiazol-4-yloxy)-N-((trans)-4-(2-methoxyethoxy)cyclohexyl)cyclobutanecarboxamide]", "IC50": "100 to 1000"}
{"smiles": "COCCO[C@H]1CC[C@H](NC(=O)N2CC(Oc3cccc4scnc34)C2)CC1", "note": "[Example 59, 3-(Benzo[d]thiazol-4-yloxy)-N-((trans)-4-(2-methoxyethoxy)cyclohexyl)azetidine-1-carboxamide]", "IC50": "10 to 79.4"}
{"smiles": "O=C(NC1CN(c2ccnc(Cl)n2)C1)N1CC(Oc2cccc3scnc23)C1", "note": "[Example 60, 3-(Benzo[d]thiazol-4-yloxy)-N-(1-(2-chloropyrimidin-4-yl)azetidin-3-yl)azetidine-1-carboxamide]", "IC50": "10 to 79.4"}
{"smiles": "O=C(NC1CN(c2ncc(F)cn2)C1)N1CC(Oc2cccc3scnc23)C1", "note": "[Example 61, 3-(Benzo[d]thiazol-4-yloxy)-N-(1-(5-fluoropyrimidin-2-yl)azetidin-3-yl)azetidine-1-carboxamide]", "IC50": "10 to 79.4"}
{"smiles": "CC(=O)c1csc(NC(=O)N2CC(Oc3cccc4scnc34)C2)n1", "note": "[Example 62, N-(4-Acetylthiazol-2-yl)-3-(benzo[d]thiazol-4-yloxy)azetidine-1-carboxamide]", "IC50": "10 to 79.4"}
{"smiles": "O=C(Nc1ccncc1)N1CC(Oc2cccc3scnc23)C1", "note": "[Example 63, 3-(Benzo[d]thiazol-4-yloxy)-N-(pyridin-4-yl)azetidine-1-carboxamide]", "IC50": "100 to 1000"}
{"smiles": "O=C(NC1CCCCC1)N1CC(Oc2cccc3scnc23)C1", "note": "[Example 64, 3-(Benzo[d]thiazol-4-yloxy)-N-cyclohexylazetidine-1-carboxamide]", "IC50": "100 to 1000"}
{"smiles": "CN/C(=N\\C#N)N1CC(NC(=O)[C@H]2C[C@H](Oc3cccc4scnc34)C2)C1", "note": "[Example 65, (trans)-3-(Benzo[d]thiazol-4-yloxy)-N-(1-((E)-N′-cyano-N-methylcarbamimidoyl)azetidin-3-yl)cyclobutanecarboxamide]", "IC50": "100 to 1000"}
{"smiles": "CC(C)(C)OC(=O)N[C@H]1C[C@H](NC(=O)[C@H]2C[C@H](Oc3cccc4scnc34)C2)C1", "note": "[Example 66, tert-butyl ((trans)-3-((trans)-3-(benzo[d]thiazol-4-yloxy)cyclobutanecarboxamido)cyclobutyl)carbamate]", "IC50": "100 to 1000"}
{"smiles": "O=C(NC1CCCCC1)N[C@H]1C[C@H](NC(=O)[C@H]2C[C@H](Oc3cccc4scnc34)C2)C1", "note": "[Example 67, (trans)-3-(Benzo[d]thiazol-4-yloxy)-N-((trans)-3-(3-cyclohexylureido)cyclobutyl)cyclobutanecarboxamide]", "IC50": "100 to 1000"}
{"smiles": "CC(=O)c1csc(NC(=O)[C@H]2C[C@H](Oc3cccc4scnc34)C2)n1", "note": "[Example 68, (trans)-N-(4-Acetylthiazol-2-yl)-3-(benzo[d]thiazol-4-yloxy)cyclobutanecarboxamide]", "IC50": "10 to 79.4"}
{"smiles": "O=C(NC1CN(c2ccnc(Cl)n2)C1)[C@H]1C[C@H](Oc2cccc3scnc23)C1", "note": "[Example 69, (trans)-3-(Benzo[d]thiazol-4-yloxy)-N-(1-(2-chloropyrimidin-4-yl)azetidin-3-yl)cyclobutanecarboxamide]", "IC50": "10 to 79.4"}
{"smiles": "CC(C)Nc1nccc(N2CC(NC(=O)[C@H]3C[C@H](Oc4cccc5scnc45)C3)C2)n1", "note": "[Example 70, (trans)-3-(Benzo[d]thiazol-4-yloxy)-N-(1-(2-(isopropylamino)pyrimidin-4-yl)azetidin-3-yl)cyclobutanecarboxamide]", "IC50": "100 to 1000"}
{"smiles": "COCCNc1nccc(N2CC(NC(=O)[C@H]3C[C@H](Oc4cccc5scnc45)C3)C2)n1", "note": "[Example 72, (trans)-3-(Benzo[d]thiazol-4-yloxy)-N-(1-(2-((2-methoxyethyl)amino)pyrimidin-4-yl)azetidin-3-yl)cyclobutanecarboxamide]", "IC50": "100 to 1000"}
{"smiles": "O=C(N[C@H]1C[C@H](Nc2ncccn2)C1)[C@H]1C[C@H](Oc2cccc3scnc23)C1", "note": "[Example 73, (trans)-3-(Benzo[d]thiazol-4-yloxy)-N-((trans)-3-(pyrimidin-2-ylamino)cyclobutyl)cyclobutanecarboxamide]", "IC50": "100 to 1000"}
